Laboratory results from patent EP0776155B1, “DELIVERY OF EXOGENOUS CHEMICAL SUBSTANCES TO PLANT TISSUES” (MONSANTO COMPANY, priority 1994, dated 1996).

Legend:
Assay type in all cases: in vivo
[1] = tested on: velvetleaf (Abutilon theophrasti, ABUTH); experiment: Example 12: percent control, abrasion 5, 2, 1 days before glyphosate application; details: glyphosate rate (kg a.e./ha)
Method: (§1) In these Examples illustrative of the invention, velvetleaf (Abutilon theophrasti, ABUTH) seeds were planted in 4-inch (10.1 cm) square pots containing 100% silt loam soil to which 35 grams/cu ft (1.25 kg/m^3) IBDU fertilizer was added, and covered with a mix of 50% Rediearth plus 50% silt loam. The pots were sub-irrigated and the seedlings thinned after emergence to 2 plants per pot.
(§2) Abrasion was applied using propelled 200-mesh garnet exactly as described for Examples 1-9. The herbicide used in these Examples was glyphosate as its isopropylamine salt, applied as diluted MON 2139, exactly as described for Examples 1-9.
(§3) The time period between abrasion and herbicide application was varied as follows. In Example 11, all abrasion treatments were applied within a short period of time, and herbicide applications were made 2, 4 and 24 hours after abrasion. A set of abraded plants received no herbicide at any time. In addition, herbicide applications were made to unabraded plants at two times: (i) at the time of abrasion, and (ii) 24 hours after the time of abrasion. In Example 12, all herbicide applications were made within a short period of time, and abrasion was applied 5, 2 and 1 days before herbicide application. In addition, herbicide application was made to unabraded plants.
(§4) Three replications were performed of every treatment. After treatment, all plants were placed in the greenhouse for the remainder of the experiment, and sub-irrigated. The first replicate was placed in one block in order of the treatment list for ease of viewing and the remaining replicates were randomly placed in two separate blocks.
(§5) After an interval of 12-14 days after herbicide application, a visual evaluation was performed to estimate herbicidal efficacy as percent control of treated plants compared to untreated check plants.

[2] = tested on: velvetleaf (Abutilon theophrasti, ABUTH); experiment: Example 11: percent control, time between abrasion and glyphosate application varied (hours); details: glyphosate rate (kg a.e./ha)
Method: as §1, §2, §3, §4, §5

[3] = tested on: white flatweed (Hypochoeris microcephala, HRYMI); experiment: Example 51: field experiment, percent control, bruising or blasting then glyphosate spray; details: 14 days after glyphosate application
Method: In this Example illustrative of the invention, a field experiment was conducted in the Australian Capital Territory on 5-10 cm high vegetation consisting primarily of white flatweed (Hypochoeris microcephala, HRYMI) at the rosette stage of growth and silvergrass (Vulpia sp., VLPSS) at the 1-3 tiller stage. Plots were established, 2 m wide and 10 m long, with 3 replications of each treatment.
Plots received either no physical injury, or one of two injury treatments, a prior art method described herein as "bruising" and a method of the present invention described herein as "blasting". Bruising involved driving a 2 metric ton four-wheel drive vehicle fitted with rubber tires, twice over the plot in opposite directions. For blasting, a hand-held sandblaster was used having a container of capacity 1000 cm^3 slung under the gun body. The sandblaster was made of die-cast aluminum alloy and equipped with a 6 mm nozzle. The operating pressure was 95 lb/sq inch (655 kPa). The abrasive used was a commercial product consisting of fine glass particles.
Within an hour after bruising or blasting, plots received an application of glyphosate as its isopropylamine salt in the form of the aqueous concentrate formulation sold in Australia as Roundup® herbicide, diluted appropriately in water. Application was made using a hand-held boom sprayer fitted with 11001 nozzles, operating at 250 kPa pressure and delivering 90 liters/ha spray volume.
After an interval of 14 days, a visual evaluation was performed to estimate herbicidal efficacy as percent control of plants in treated plots compared to untreated check plots.

[4] = tested on: velvetleaf (Abutilon theophrasti, ABUTH); experiment: Example 50: percent control, KOH chemical corrosive or garnet abrasion then glyphosate spray; details: 11 days after glyphosate application
Method: In this Example illustrative of the invention, velvetleaf (Abutilon theophrasti, ABUTH) seeds were planted in 4-inch (10.1-cm) square pots filled with a soil mix consisting of 50% Metromix 350 plus 50% silt loam soil to which 100 g/cu ft (3.57 kg/m^3) Osmocote fertilizer were added, and the seeds were covered with the same soil mix without added fertilizer. […] The same settings were maintained before and after treatment.
Physical injury in this Example was inflicted on the above-ground portions of the plants, 17 days after planting, by a propelled chemical corrosive, a 2.5% weight/weight aqueous potassium hydroxide (KOH) solution. This solution was applied using a track sprayer calibrated to deliver 20 gallons/acre (187 liters/ha) with an 8002E nozzle having a 50-mesh screen, 16 inches (41 cm) above the plant canopy. Plants were allowed to dry for 1 hour after KOH treatment. Other plants received injury by abrasion using a hand-held Sears Craftsman™ sandblaster as described in Examples 1-9. A third set of plants received no abrasion or corrosion with KOH.
Plants were then assigned to different herbicide treatments in a factorial experimental design with 3 replications. All plants for each herbicide treatment were sprayed at the same time using a track sprayer calibrated to deliver 20 gallons/acre (187 liters/ha) water with an 8002E nozzle having a 50-mesh screen, 16 inches (41 cm) above the plant canopy. In these Examples the herbicide used was glyphosate as its isopropylamine salt, in the form of the aqueous concentrate formulation MON 2139 of Monsanto Company. Spray solutions were made from stock solutions prepared by dilution of MON 2139 in water.
After an interval of 11 days, a visual evaluation was performed to estimate herbicidal efficacy as percent control of treated plants compared to untreated check plants.

For `O=C(O)CNCP(=O)(O)O` [glyphosate, N-phosphonomethylglycine], the “percent control of ABUTH 12 days after glyphosate application” value (“percent control of ABUTH 12 days” for short) ([1]; abraded before 0 days, glyphosate 0.056 kg a.e./ha) was 79%, the “percent control of ABUTH 12 days” value ([1]; abraded before 0 days, glyphosate 0.11 kg a.e./ha) was 95% and the “percent control of ABUTH 12 days” value ([1]; abraded before 0 days, glyphosate 0.22 kg a.e./ha) was 100%. For the same compound, the “percent control of ABUTH 12 days” value ([1]; abraded before 1 day, glyphosate 0.056 kg a.e./ha) was 77%, the “percent control of ABUTH 12 days” value ([1]; abraded before 1 day, glyphosate 0.11 kg a.e./ha) was 92% and the “percent control of ABUTH 12 days” value ([1]; abraded before 1 day, glyphosate 0.22 kg a.e./ha) was 100%. The “percent control of ABUTH 12 days” value ([1]; abraded before 2 days, glyphosate 0.056 kg a.e./ha) was 76%, the “percent control of ABUTH 12 days” value ([1]; abraded before 2 days, glyphosate 0.11 kg a.e./ha) was 93% and the “percent control of ABUTH 12 days” value ([1]; abraded before 2 days, glyphosate 0.22 kg a.e./ha) was 100%. The “percent control of ABUTH 12 days” value ([1]; abraded before 5 days, glyphosate 0.056 kg a.e./ha) was 52%, the “percent control of ABUTH 12 days” value ([1]; abraded before 5 days, glyphosate 0.11 kg a.e./ha) was 73% and the “percent control of ABUTH 12 days” value ([1]; abraded before 5 days, glyphosate 0.22 kg a.e./ha) was 97%. The “percent control of ABUTH 12 days” value ([1]; abraded before 5 days, glyphosate 0.45 kg a.e./ha) was 100%, the “percent control of ABUTH 14 days after glyphosate application” value (shortened to “percent control of ABUTH 14 days”) ([2]; abraded before 0 h, glyphosate 0.056 kg a.e./ha) was 70% and the “percent control of ABUTH 14 days” value ([2]; abraded before 0 h, glyphosate 0.11 kg a.e./ha) was 78%. For the same compound, the “percent control of ABUTH 14 days” value ([2]; abraded before 2 h, glyphosate 0.056 kg a.e./ha) was 73%, the “percent control of ABUTH 14 days” value ([2]; abraded before 2 h, glyphosate 0.11 kg a.e./ha) was 85% and the “percent control of ABUTH 14 days” value ([2]; abraded before 4 h, glyphosate 0.056 kg a.e./ha) was 79%. The “percent control of ABUTH 14 days” value ([2]; abraded before 4 h, glyphosate 0.11 kg a.e./ha) was 94%, the “percent control of ABUTH 14 days” value ([2]; abraded before 24 h, glyphosate 0.056 kg a.e./ha) was 45% and the “percent control of ABUTH 14 days” value ([2]; abraded before 24 h, glyphosate 0.11 kg a.e./ha) was 76%. For the same compound, the “percent control HRYMI” value ([3]; glyphosate rate 0.18 kg a.e./ha, injury treatment blasting) was 77%, the “percent control HRYMI” value ([3]; glyphosate rate 0.18 kg a.e./ha, injury treatment bruising) was 77% and the “percent control HRYMI” value ([3]; glyphosate rate 0.18 kg a.e./ha, injury treatment none) was 62%. The “percent control HRYMI” value ([3]; glyphosate rate 0.25 kg a.e./ha, injury treatment blasting) was 100%, the “percent control HRYMI” value ([3]; glyphosate rate 0.25 kg a.e./ha, injury treatment bruising) was 80% and the “percent control HRYMI” value ([3]; glyphosate rate 0.25 kg a.e./ha, injury treatment none) was 78%. For the same compound, the “percent control HRYMI” value ([3]; glyphosate rate 0.36 kg a.e./ha, injury treatment blasting) was 100%, the “percent control HRYMI” value ([3]; glyphosate rate 0.36 kg a.e./ha, injury treatment bruising) was 93% and the “percent control HRYMI” value ([3]; glyphosate rate 0.36 kg a.e./ha, injury treatment none) was 92%. The “percent control of ABUTH” value ([4]; glyphosate rate 0.0140 kg a.e./ha, injury by abrasion) was 30%, the “percent control of ABUTH” value ([4]; glyphosate rate 0.0140 kg a.e./ha, injury by corrosion (KOH)) was 7% and the “percent control of ABUTH” value ([4]; glyphosate rate 0.0140 kg a.e./ha, no physical injury) was 0%. The “percent control of ABUTH” value ([4]; glyphosate rate 0.028 kg a.e./ha, injury by abrasion) was 70%, the “percent control of ABUTH” value ([4]; glyphosate rate 0.028 kg a.e./ha, injury by corrosion (KOH)) was 13% and the “percent control of ABUTH” value ([4]; glyphosate rate 0.028 kg a.e./ha, no physical injury) was 0%. The “percent control of ABUTH” value ([4]; glyphosate rate 0.056 kg a.e./ha, injury by abrasion) was 75%, the “percent control of ABUTH” value ([4]; glyphosate rate 0.056 kg a.e./ha, injury by corrosion (KOH)) was 48% and the “percent control of ABUTH” value ([4]; glyphosate rate 0.056 kg a.e./ha, no physical injury) was 3%. The “percent control of ABUTH” value ([4]; glyphosate rate 0.11 kg a.e./ha, injury by abrasion) was 83%, the “percent control of ABUTH” value ([4]; glyphosate rate 0.11 kg a.e./ha, injury by corrosion (KOH)) was 73% and the “percent control of ABUTH” value ([4]; glyphosate rate 0.11 kg a.e./ha, no physical injury) was 0%. The “percent control of ABUTH” value ([4]; glyphosate rate 0.22 kg a.e./ha, injury by abrasion) was 96%, the “percent control of ABUTH” value ([4]; glyphosate rate 0.22 kg a.e./ha, injury by corrosion (KOH)) was 85% and the “percent control of ABUTH” value ([4]; glyphosate rate 0.22 kg a.e./ha, no physical injury) was 81%. The “percent control of ABUTH” value ([4]; glyphosate rate 0.45 kg a.e./ha, injury by abrasion) was 99%, the “percent control of ABUTH” value ([4]; glyphosate rate 0.45 kg a.e./ha, injury by corrosion (KOH)) was 91% and the “percent control of ABUTH” value ([4]; glyphosate rate 0.45 kg a.e./ha, no physical injury) was 87%. For the same compound, the “percent control of ABUTH” value ([4]; glyphosate rate 0.89 kg a.e./ha, no physical injury) was 100%.
